# In US20130157954A1, “METHODS FOR TREATMENT OR PROPHYLAXIS OF KIDNEY OR LIVER DYSFUNCTION” (NPS PHARMACEUTICALS, INC., priority 2010, published 2013):
# Assay: Example 1: liver biomarkers (total bilirubin, ALT, AST, ALP) in short bowel syndrome patients, every four weeks for 24 weeks; also sorted by >5% change from baseline
# Type: in vivo, Human
# Design: AST (SGOT) Change from Baseline Median / ALT (SGPT) Median / TOTAL BILIRUBIN Median / TOTAL BILIRUBIN Change from Baseline Median / ALT (SGPT) Change from Baseline Median / AST (SGOT) Median: unit not given here
# Details: 0.05 mg/kg/day
# Protocol: Human patients with short bowel syndrome were divided into three groups: a control group (16 total individuals) to receive placebo, an experimental group (35 total individuals) to receive teduglutide at 0.05 mg/kg/day throughout the study, and an experimental group (32 total individuals) to receive teduglutide at 0.1 mg/kg/day throughout the study. Patients were treated by subcutaneous injection of placebo or the appropriate dose of teduglutide. As individuals with short bowel syndrome are likely to experience associated liver and kidney disease, known biomarkers of liver and kidney function were monitored every four weeks, for 24 weeks. The liver biomarkers tested included total bilirubin, ALT and AST and ALP. The kidney biomarkers tested included urea nitrogen, creatinine and GFR. Before administration of placebo or teduglutide, diagnostic biomarker levels were tested to establish a baseline for each individual.
# To visualize the effect of GLP-2 on the levels of the diagnostic biomarkers, the average change from baseline was calculated for the placebo and teduglutide treated groups for each visit after a baseline was established. The average change from baseline of each group is depicted in FIGS. 1-7. The numerical figures for each diagnostic biomarker at each time point are depicted in Table 1.
# The efficacy of teduglutide in treating liver dysfunction was further tested by sorting the data into two groups: individuals with abnormal baseline values of liver diagnostic biomarkers; and individuals with normal baseline values of liver diagnostic biomarkers. The mean diagnostic biomarker change from baseline for these two groups is shown for ALT (FIGS. 5 and 6) and AST (FIGS. 7 and 8). […] These changes were significant when compared to baseline levels for the group, and when compared to placebo (see FIGS. 5 and 7).
# The raw data for this sorting is reproduced in Table 2 below.
smiles,measurement,setting,value
CC[C@H](C)[C@H](NC(=O)[C@H](Cc1ccccc1)NC(=O)[C@H](CC(=O)O)NC(=O)[C@H](CCCNC(=N)N)NC(=O)[C@H](C)NC(=O)[C@H](C)NC(=O)[C@H](CC(C)C)NC(=O)[C@H](CC(N)=O)NC(=O)[C@H](CC(=O)O)NC(=O)[C@H](CC(C)C)NC(=O)[C@@H](NC(=O)[C@@H](NC(=O)[C@H](CC(N)=O)NC(=O)[C@H](CCSC)NC(=O)[C@H](CCC(=O)O)NC(=O)[C@H](CC(=O)O)NC(=O)[C@H](CO)NC(=O)[C@H](Cc1ccccc1)NC(=O)[C@H](CO)NC(=O)CNC(=O)[C@H](CC(=O)O)NC(=O)CNC(=O)[C@@H](N)Cc1c[nH]cn1)[C@@H](C)O)[C@@H](C)CC)C(=O)N[C@@H](CC(N)=O)C(=O)N[C@@H](Cc1c[nH]c2ccccc12)C(=O)N[C@@H](CC(C)C)C(=O)N[C@H](C(=O)N[C@@H](CCC(N)=O)C(=O)N[C@H](C(=O)N[C@@H](CCCCN)C(=O)N[C@H](C(=O)N[C@H](C(=O)N[C@@H](CC(=O)O)C(=O)O)[C@@H](C)O)[C@@H](C)CC)[C@@H](C)O)[C@@H](C)CC [teduglutide],ALKALINE PHOSPHATASE Change from Baseline Median,DW4,−16.0
same,ALT (SGPT) Change from Baseline Median,DW4,−5.0
same,ALT (SGPT) Median,DW4,27.0
same,AST (SGOT) Change from Baseline Median,DW4,−4.0
same,AST (SGOT) Median,DW4,27.0
same,TOTAL BILIRUBIN Change from Baseline Median,DW4,0.0
same,TOTAL BILIRUBIN Median,DW4,7.0
same,ALKALINE PHOSPHATASE Change from Baseline Median,DW8,−20.0
same,ALT (SGPT) Change from Baseline Median,DW8,−4.0
same,AST (SGOT) Change from Baseline Median,DW8,−3.0
same,AST (SGOT) Median,DW8,28.0
same,TOTAL BILIRUBIN Change from Baseline Median,DW8,−1.0
same,TOTAL BILIRUBIN Median,DW8,8.0
same,ALKALINE PHOSPHATASE Change from Baseline Median,DW12,−24.0
same,ALT (SGPT) Change from Baseline Median,DW12,−10.0
same,ALT (SGPT) Median,DW12,26.0
same,AST (SGOT) Change from Baseline Median,DW12,−8.0
same,TOTAL BILIRUBIN Change from Baseline Median,DW12,−1.0
same,TOTAL BILIRUBIN Median,DW12,7.0
same,ALT (SGPT) Change from Baseline Median,DW16,−2.5
same,ALT (SGPT) Median,DW16,28.0
same,AST (SGOT) Change from Baseline Median,DW16,−1.5
same,AST (SGOT) Median,DW16,25.0
same,TOTAL BILIRUBIN Change from Baseline Median,DW16,−1.0
same,TOTAL BILIRUBIN Median,DW16,7.0
same,ALKALINE PHOSPHATASE Change from Baseline Median,DW20,−25.0
same,ALT (SGPT) Change from Baseline Median,DW20,−5.0
same,ALT (SGPT) Median,DW20,26.0
same,AST (SGOT) Change from Baseline Median,DW20,−4.0
same,AST (SGOT) Median,DW20,25.0
same,TOTAL BILIRUBIN Change from Baseline Median,DW20,0.0
same,TOTAL BILIRUBIN Median,DW20,9.0
same,ALKALINE PHOSPHATASE Change from Baseline Median,DW 24,−29.0
same,ALT (SGPT) Change from Baseline Median,DW 24,−5.0
same,ALT (SGPT) Median,DW 24,20.0
same,AST (SGOT) Change from Baseline Median,DW 24,−4.5
same,AST (SGOT) Median,DW 24,25.0
same,TOTAL BILIRUBIN Change from Baseline Median,DW 24,0.0
same,TOTAL BILIRUBIN Median,DW 24,8.0
same,"ALKALINE PHOSPHATASE change from baseline <−5%, number of patients",week 4,21
same,"ALKALINE PHOSPHATASE change from baseline <−5%, percent of patients",week 4,(60.0%)
same,"ALKALINE PHOSPHATASE change from baseline >5%, number of patients",week 4,3
same,"ALKALINE PHOSPHATASE change from baseline >5%, percent of patients",week 4,(8.6%)
same,"ALKALINE PHOSPHATASE change from baseline −5% <= and <=5%, number of patients",week 4,6
same,"ALKALINE PHOSPHATASE change from baseline −5% <= and <=5%, percent of patients",week 4,(17.1%)
same,"ALT (SGPT) change from baseline <−5%, number of patients",week 4,22
same,"ALT (SGPT) change from baseline <−5%, percent of patients",week 4,(62.9%)
same,"ALT (SGPT) change from baseline >5%, number of patients",week 4,8
same,"ALT (SGPT) change from baseline >5%, percent of patients",week 4,(22.9%)
same,"ALT (SGPT) change from baseline −5% <= and <=5%, number of patients",week 4,0
same,"ALT (SGPT) change from baseline −5% <= and <=5%, percent of patients",week 4,(0.0%)
same,"AST (SGOT) change from baseline <−5%, number of patients",week 4,21
same,"AST (SGOT) change from baseline <−5%, percent of patients",week 4,(60.0%)
same,"AST (SGOT) change from baseline >5%, number of patients",week 4,5
same,"AST (SGOT) change from baseline >5%, percent of patients",week 4,(14.3%)
same,"AST (SGOT) change from baseline −5% <= and <=5%, number of patients",week 4,2
same,"AST (SGOT) change from baseline −5% <= and <=5%, percent of patients",week 4,(5.7%)
same,"TOTAL BILIRUBIN change from baseline <−5%, number of patients",week 4,12
same,"TOTAL BILIRUBIN change from baseline <−5%, percent of patients",week 4,(34.3%)
same,"TOTAL BILIRUBIN change from baseline >5%, number of patients",week 4,8
same,"TOTAL BILIRUBIN change from baseline >5%, percent of patients",week 4,(22.9%)
same,"TOTAL BILIRUBIN change from baseline −5% <= and <=5%, number of patients",week 4,6
same,"TOTAL BILIRUBIN change from baseline −5% <= and <=5%, percent of patients",week 4,(17.1%)
same,"ALKALINE PHOSPHATASE change from baseline <−5%, number of patients",week 8,21
same,"ALKALINE PHOSPHATASE change from baseline <−5%, percent of patients",week 8,(60.0%)
same,"ALKALINE PHOSPHATASE change from baseline >5%, number of patients",week 8,6
same,"ALKALINE PHOSPHATASE change from baseline >5%, percent of patients",week 8,(17.1%)
same,"ALKALINE PHOSPHATASE change from baseline −5% <= and <=5%, number of patients",week 8,2
same,"ALKALINE PHOSPHATASE change from baseline −5% <= and <=5%, percent of patients",week 8,(5.7%)
same,"ALT (SGPT) change from baseline <−5%, number of patients",week 8,16
same,"ALT (SGPT) change from baseline <−5%, percent of patients",week 8,(45.7%)
same,"ALT (SGPT) change from baseline >5%, number of patients",week 8,9
same,"ALT (SGPT) change from baseline >5%, percent of patients",week 8,(25.7%)
same,"ALT (SGPT) change from baseline −5% <= and <=5%, number of patients",week 8,4
same,"ALT (SGPT) change from baseline −5% <= and <=5%, percent of patients",week 8,(11.4%)
same,"AST (SGOT) change from baseline <−5%, number of patients",week 8,16
same,"AST (SGOT) change from baseline <−5%, percent of patients",week 8,(45.7%)
same,"AST (SGOT) change from baseline >5%, number of patients",week 8,9
same,"AST (SGOT) change from baseline >5%, percent of patients",week 8,(25.7%)
same,"AST (SGOT) change from baseline −5% <= and <=5%, number of patients",week 8,4
same,"AST (SGOT) change from baseline −5% <= and <=5%, percent of patients",week 8,(11.4%)
same,"TOTAL BILIRUBIN change from baseline <−5%, number of patients",week 8,13
same,"TOTAL BILIRUBIN change from baseline <−5%, percent of patients",week 8,(37.1%)
same,"TOTAL BILIRUBIN change from baseline >5%, number of patients",week 8,8
same,"TOTAL BILIRUBIN change from baseline >5%, percent of patients",week 8,(22.9%)
same,"TOTAL BILIRUBIN change from baseline −5% <= and <=5%, number of patients",week 8,4
same,"TOTAL BILIRUBIN change from baseline −5% <= and <=5%, percent of patients",week 8,(11.4%)
same,"ALKALINE PHOSPHATASE change from baseline <−5%, number of patients",week 12,23
same,"ALKALINE PHOSPHATASE change from baseline <−5%, percent of patients",week 12,(65.7%)
same,"ALKALINE PHOSPHATASE change from baseline >5%, number of patients",week 12,2
same,"ALKALINE PHOSPHATASE change from baseline >5%, percent of patients",week 12,(5.7%)
same,"ALKALINE PHOSPHATASE change from baseline −5% <= and <=5%, number of patients",week 12,2
